The results in this text go back to patent EP2545917B1, “NOVEL EP4 AGONIST” (Kaken Pharmaceutical Co., Ltd., priority 2010, dated 2011).

Series [1] has as its system CD4+CD25- T cell transfer colitis. In words: Prophylactic effect on CD4+CD25- T cell transfer colitis model in mice. Conditions: scid mice, oral 1 mg/kg once a day for 20 days. Type of series: in vivo, C.B-17/Icr-scid mice. On the procedure:
Female BALB/cA Jcl mice, 6 weeks old, body weight 19 - 23 g (CLEA Japan, Inc.) and female C.B-17/Icr-scid mice (6 weeks old, CLEA Japan, Inc.) were purchased, acclimated for 1 week and used for the study. After laparotomy under ether anesthesia, BALB/cA Jcl mice were exsanguinated to death through the abdominal aorta and caudal vena cava, and the spleen was isolated. Splenocytes were prepared from the spleen and then CD4^+CD25^- T cells were prepared with a CD4^+ T cell Isolation Kit (No. 130-090-860, Milky Biotech Co., Ltd.) and CD25-Biotin antibody (No. 130-092-569, Milky Biotech Co., Ltd.). The cells were separated using the autoMACS Separator (Milky Biotech Co., Ltd.). The separated CD4^+CD25^- T cells were suspended in physiological phosphate buffer solution, and 2.5×10^5 cells per animal were intraperitoneally administered to C.B-17/Icr-scid mice to induce colitis. […] To the control group was orally administered a solvent (1 vol% ethanol solution) at 10 mL/kg. […] The fecal occult blood score was evaluated in the same manner as in Example 23. […] Eight to 10 mice were used for each group and the results were expressed as average.

Series [2] relates to concanavalin A-induced hepatitis. In words: Prophylactic effect on concanavalin A-induced hepatitis model in mice. Format: in vivo, BALB/c mice. Conditions: oral 1 hr before Con A, compound F 1 mg/10 mL/kg, prednisolone 5 mg/10 mL/kg, 20 hr after Con A. The method, then:
BALB/c mice (female, 7 weeks old, Japan SLC) were purchased, acclimated for 1 week and used for the study. Except the no-induction group, Con A (type IV, Sigma-Aldrich) dissolved in saline was administered from the tail vein of the mice at a dose of 12.5 mg/10 mL/kg to induce hepatitis. Twenty hr later, the mice were subjected to laparotomy under ether anesthesia. A 0.5 mL of blood sample was collected from the caudal vena cava and heparinized plasma was obtained to measure plasma ALT and AST activities. Test substances were compound F (1 mg/10 mL solution), prednisolone (Nacalai Tesque, 5 mg/10 mL suspension (with 0.5 w/v% methylcellulose)) and water for injection (administered to the control group), which were orally administered at a volume of 10 mL/kg 1 hr before Con A injection. Seven to 9 animals were used for each group. After logarithmic transformation of the data, one-way analysis of variance was performed for statistical evaluation.

The test system of series [3] is anti-Thy-1 antibody-induced glomerulonephritis. In words: Anti-Thy-1 antibody-induced glomerulonephritis model in rats. As to conditions: oral 0.3 mg/kg twice a day. Format: in vivo, Wistar rats. The method, then:
Male Slc: Wistar rats (6 weeks old, Japan SLC) were purchased, acclimated for 1 week and used for the study. Except the normal group, anti-Thy-1 antibody (mouse anti-CD90 antibody (UK-Serotech Ltd. Code:MCA47XZ, clone No: MRC OX-7, Lot No.0303)) was administered once intravenously to the animals. A mixture of compound F and compound J (F:J = 52:41, indicated as compound F/J) was orally administered from the day of the antibody administration (day 0) to day 6, daily, twice a day (morning and evening; each 0.3 mg/kg). After 3 days from the antibody administration, urine was collected for one day. On day 7 of the antibody administration, the animal was autopsied. The right kidney was isolated, weighed and fixed with formalin. Five to 8 animals were used for each group and the results were expressed as average ± standard deviation.

Series [4] relates to dextran sodium sulfate-induced colitis. In words: Therapeutic effect on remission/relapse model of dextran sodium sulfate-induced colitis in mice. Type of series: in vivo, BALB/c mice. As to conditions: SASP 100 mg/kg. From the text:
Next, therapeutic effect of compound F on colitis was studied in a chronic model. Female BALB/c mice, 6 weeks old, body weight about 20 g (Japan SLC) were purchased, acclimated for 1 week and used for the study. The mice were divided into a colitis induction group and a normal group. The colitis induction group was allowed to freely drink a 2.6 w/v% DSS (MP Biochemicals, M.W. 36,000- 50,000, Lot No. 4556J) solution to induce colitis. On day 8 when the stool score (defined in Example 23) of the colitis induction group reached about 4.5, the mice were subdivided into a control group, a compound F 1 mg/kg administration group and a salazosulfapyridine (SIGMA, Lot No. 085K1930, hereinafter to be abbreviated as SASP) 100 mg/kg administration group. Then the mice were allowed to freely drink distilled water instead of DSS solution for 9 days (remission period). After the grouping, the stool score was evaluated every 3 - 4 days. When the score of the control group reached about 1, the mice were again allowed to drink the DSS solution to cause a relapse (relapse period). The periods of remission and relapse were taken as 1 cycle and the cycle was repeated 5 times. As for the 5th cycle, however, only the remission period was performed.
Compound F at a dose of 1 mg/kg and SASP at a dose of 100 mg/kg were orally administered once a day, daily, for 50 days from the initial remission period (day 8 from the start of 2.6 w/v% DSS drinking) to the fifth remission period (day 57 from the start of 2.6 w/v% DSS drinking). To the control group was orally administered a solvent (1 vol% ethanol solution) at 10 mL/kg. If a mouse had score 0 of both stool consistency score and occult blood score on the last day of each remission period, the mouse was regarded as "in remission". The remission ratio (%) was calculated as a ratio of mice in remission in each group. Eight to 10 mice were used for each group and the results are shown in average value.

Where [5] appears, read: mice, oral once a day, Compound F 1 mg/kg.

Each structure is given as a SMILES string.

For the molecule `C[C@]12C=CC(=O)C=C1CC[C@@H]1[C@@H]2[C@@H](O)C[C@@]2(C)[C@H]1CC[C@]2(O)C(=O)CO` [prednisolone, reference compound], in series [1], the “effect on body weight decrease score” value is recorded as “clearly worsened the score” and the “effect on stool consistency score” value is on record as “failed to show a clear effect on the stool consistency score on day 21”. In addition, in series [2], the “effect on increase of plasma ALT activity” value was “significantly and strongly suppressed the increase”; the “effect on increase of plasma AST activity” value is “significantly and strongly suppressed the increase”.
Regarding `Cc1cccc(C(C)[C@H](O)/C=C/[C@@H]2[C@@H]3[C@H](C[C@H]2O)O/C(=C\CCCc2nnn[nH]2)C3(F)F)c1` (mixture of isomers) [compound F/J, 4-[(Z)-(1S,5R,6R,7R)-6-[(1E,3R,4RS)-3-hydroxy-4-(m-tolyl)-1-pentenyl]-7-hydroxy-2-oxa-4,4-difluoro-bicyclo[3.3.0]octan-3-ylidene]-1-(tetrazol-5-yl)butane], the body weight entry in series [3] was “a shift similar to that of the control group”. In addition, in series [3] (day 7), the relative kidney weight entry was “a value lower than control and near the normal”; the “renal histopathology: total glomerular cells, mesangial region and PCNA-positive cells in the glomerulus” value was “significantly suppressed the increase in all of these measures”. In series [3] (urine collected after 3 days), the 24-hr urine protein entry was “a lower value than control” and the 24-hr urine volume result is reported as “of the same level as the normal group”.
In the case of `O=C(O)c1cc(/N=N/c2ccc(S(=O)(=O)Nc3ccccn3)cc2)ccc1O` [SASP, salazosulfapyridine, reference compound], the “Remission Ratio Average” value in series [4] (average of 5 remission periods, Compound F 1 mg/kg) amounted to 40.0%. The “effect on stool score in remission and relapse periods” value in series [4] (mice, oral once a day for 50 days, compound F 1 mg/kg) is “did not show a clear effect on the stool score in either the remission period or the relapse period”. Moreover, in series [4] (setting [5]), the “Remission Ratio Cycle 1” value is listed as 50.0%, the “Remission Ratio Cycle 2” value is on record as 50.0%, the “Remission Ratio Cycle 3” value was 37.5% and the “Remission Ratio Cycle 4” value came to 50.0%. In addition, in series [4] (setting [5]), the “Remission Ratio Cycle 5” value was 12.5%.
